# Experimental data taken from patent US20180161314A1, “Methods for Treating Hyperuricemia and Related Diseases” (Ardea Biosciences, Inc., priority 2010, published 2018).
# Tested on: healthy adult subjects
# Assay: Drug 1 / febuxostat cross-over interaction study in healthy adult subjects (Examples 10-12)
# Format: in vivo, human
# Details: for % serum uric acid change, Mean: drug 1 200 mg qd, febuxostat 40 mg qd; for Absolute sUA reduction from baseline, Intraday peak / Absolute sUA reduction from baseline, Trough / Percent sUA reduction from baseline, Intraday peak / Percent sUA reduction from baseline, Trough: febuxostat 40 mg alone
# Description: Study Objectives • To compare the multiple-dose pharmacokinetics of febuxostat in the absence versus presence of drug 1 co-administration. • To compare the multiple-dose pharmacokinetics of drug 1 in the absence versus presence of febuxostat co-administration. • To measure the effects of drug 1 and febuxostat, both alone and in combination, on serum uric acid concentrations and amounts of urate excreted into urine. • To evaluate the safety and tolerability of multiple-doses of drug 1 and febuxostat, both alone or in combination.
# The study is a two or three-panel, placebo-controlled (for drug 1), double-blinded (for drug 1 and matched placebo), randomized, cross-over study with up to 54 healthy adult subjects. Each panel consisting of 18 subjects is sequentially enrolled, starting with Panel 1 (200 mg once daily dose of drug 1 or placebo), followed by Panel 2 (400 mg once daily dose of drug 1 or placebo), and followed by optional Panel 3 (100 mg to 600 mg once daily dose of drug 1 or placebo). The placebo control is included in this study to better assess safety and tolerability and the serum urate lowering effect of drug 1 in combination with febuxostat. Serum urate levels may be influenced by frequent blood draws and meal contents; therefore, the true effect on serum urate levels can be determined by correcting for placebo (subtract serum urate effect in placebo subjects from serum urate effect in active subjects).
# Subjects in each panel are randomly assigned to one of two treatment sequences (Sequence A or B) after all Baseline (Day −1) procedures have been completed. Each treatment sequence within a panel consists of 9 subjects randomly assigned to receive drug 1 (6 of 9 subjects) or matching placebo (3 of 9 subjects) in a double-blinded fashion. For each treatment sequence, single-agent drug treatment is administered on Days 1 to 7 (either open-label febuxostat or double-blinded drug 1 or matched placebo by random assignment), followed by combination treatment on Days 8 to 14, and completing with the alternative single-agent drug treatment on Days 15 to 21, as follows (Panel 1 shown in FIG. 2):
# Sequence A: Days 1-7: Febuxostat, 40 mg (once daily) • Days 8 to 14: drug 1, 200 mg or placebo in combination with febuxostat (once daily) • Days 15-21: drug 1, 200 mg, or placebo (once daily) Sequence B: Days 1-7: drug 1, 200 mg, or placebo (once daily) • Days 8 to 14: drug 1, 200 mg or placebo in combination with febuxostat (once daily) • Days 15-21: Febuxostat, 40 mg (once daily) […]
# Serial blood samples for PK and PD assessments are collected up to 24 hours after dosing on Days 7, 14, and 21. Urine (total catch) for assays of drug 1, creatinine, and uric acid are collected starting on Day −1 (pre-treatment baseline) and after dosing on Days 7, 14, and 21. Final safety assessments are completed when subjects return to the clinic at 7±1 days after discharge from the clinic on Day 22 (Follow-Up visit on Day 29). The total volume of blood collected from each subject is approximately 518 mL.
# Screening procedures to determine subject eligibility are performed 28 days before the first dose of study drug (Day 1). A total of up to 54 subjects enrolled in up to 3 panels consisting of 2 sequences each, with 9 subjects per sequence (18 subjects per panel). Subjects withdrawing after dosing are not replaced.
# Subjects in Panel 1 receive a 200 mg dose of drug 1 or placebo once daily for 14 days and a 40 mg dose of febuxostat once daily for 14 days. Subjects in Panel 2 receive a 400 mg dose of drug 1 or placebo once daily for 14 days and a 40 mg dose of febuxostat once daily for 14 days. Subjects in Panel 3 receive a 100-600 mg dose of drug 1 or placebo once daily for 14 days and a 40 mg dose of febuxostat once daily for 14 days.
# Subjects in Sequence A begin dosing on Day 1 with febuxostat and take their first dose of drug 1 or placebo on Day 8. […]
# [1] = Week 2, Drug 1 200 mg + febuxostat 40 mg combo
smiles,measurement,setting,value
"Cc1nc(-c2ccc(OCC(C)C)c(C#N)c2)sc1C(=O)O [Febuxostat, 2-(3-Cyano-4-isobutoxyphenyl)-4-methyl-1,3-thiazole-5-carboxylic acid, reference compound]","serum uric acid change from baseline, daily","Day 1, Drug 1 200 mg, FBX 40 mg",−6.4%
same,"% serum uric acid change, Mean",Day 1,−7.5%
same,"serum uric acid change from baseline, daily","Day 2, Drug 1 200 mg, FBX 40 mg",−25.7%
same,"% serum uric acid change, Mean",Day 2,−23.8%
same,"serum uric acid change from baseline, daily","Day 3, Drug 1 200 mg, FBX 40 mg",−33.6%
same,"% serum uric acid change, Mean",Day 3,−30.5%
same,"serum uric acid change from baseline, daily","Day 4, Drug 1 200 mg, FBX 40 mg",−37.8%
same,"% serum uric acid change, Mean",Day 4,−34.5%
same,"serum uric acid change from baseline, daily","Day 5, Drug 1 200 mg, FBX 40 mg",−37.9%
same,"% serum uric acid change, Mean",Day 5,−34.3%
same,"serum uric acid change from baseline, daily","Day 6, Drug 1 200 mg, FBX 40 mg",−42.6%
same,"% serum uric acid change, Mean",Day 6,−38.1%
same,"serum uric acid change from baseline, daily","Day 7, Drug 1 200 mg, FBX 40 mg",−44.6%
same,"% serum uric acid change, Mean",Day 7,−39.0%
same,"serum uric acid change from baseline, daily","Day 8, Drug 1 200 mg, FBX 40 mg, alone or combined as labelled",−42.7%
same,"% serum uric acid change, Mean",Day 8,−38.9%
same,"serum uric acid change from baseline, daily","Day 9, Drug 1 200 mg, FBX 40 mg, alone or combined as labelled",−38.1%
same,"serum uric acid change from baseline, daily","Day 10, Drug 1 200 mg, FBX 40 mg, alone or combined as labelled",−40%
same,"serum uric acid change from baseline, daily","Day 11, Drug 1 200 mg, FBX 40 mg, alone or combined as labelled",−39.2%
same,"serum uric acid change from baseline, daily","Day 12, Drug 1 200 mg, FBX 40 mg, alone or combined as labelled",−36.9%
same,"serum uric acid change from baseline, daily","Day 13, Drug 1 200 mg, FBX 40 mg, alone or combined as labelled",−36.8%
same,"serum uric acid change from baseline, daily","Day 14, Drug 1 200 mg, FBX 40 mg, alone or combined as labelled",−42%
same,"serum uric acid change from baseline, daily","Day 15, Drug 1 200 mg, FBX 40 mg, alone or combined as labelled",−39.1%
same,"serum uric acid change from baseline, daily","Day 15, FBX 40 mg after combo",−62.3%
same,"serum uric acid change from baseline, daily","Day 16, Drug 1 200 mg alone (week 3), FBX 40 mg alone",−36.5%
same,"serum uric acid change from baseline, daily","Day 16, FBX 40 mg after combo",−50.9%
same,"serum uric acid change from baseline, daily","Day 17, Drug 1 200 mg alone (week 3), FBX 40 mg alone",−35.8%
same,"serum uric acid change from baseline, daily","Day 17, FBX 40 mg after combo",−45.6%
same,"serum uric acid change from baseline, daily","Day 18, Drug 1 200 mg alone (week 3), FBX 40 mg alone",−36.3%
same,"serum uric acid change from baseline, daily","Day 18, FBX 40 mg after combo",−45.7%
same,"serum uric acid change from baseline, daily","Day 19, Drug 1 200 mg alone (week 3), FBX 40 mg alone",−33.6%
same,"serum uric acid change from baseline, daily","Day 19, FBX 40 mg after combo",−41%
same,"serum uric acid change from baseline, daily","Day 20, Drug 1 200 mg alone (week 3), FBX 40 mg alone",−34.3%
same,"serum uric acid change from baseline, daily","Day 20, FBX 40 mg after combo",−42.9%
same,"serum uric acid change from baseline, daily","Day 21, Drug 1 200 mg alone (week 3), FBX 40 mg alone",−37.6%
same,"serum uric acid change from baseline, daily","Day 21, FBX 40 mg after combo",−49.1%
same,"serum uric acid change from baseline, daily","Day 22, Drug 1 200 mg alone (week 3), FBX 40 mg alone",−35.2%
same,"serum uric acid change from baseline, daily","Day 22, FBX 40 mg after combo",−45.7%
same,"Absolute sUA reduction from baseline, Intraday peak","Week 1, Drug 1 200 mg alone",-3.4 mg/dL
same,"Absolute sUA reduction from baseline, Trough","Week 1, Drug 1 200 mg alone",-2.8 mg/dL
same,"Percent sUA reduction from baseline, Intraday peak","Week 1, Drug 1 200 mg alone",−55.3%
same,"Percent sUA reduction from baseline, Trough","Week 1, Drug 1 200 mg alone",−45.4%
same,"Absolute sUA reduction from baseline, Intraday peak",[1],-3.1 mg/dL
same,"Absolute sUA reduction from baseline, Trough",[1],-2.6 mg/dL
same,"Percent sUA reduction from baseline, Intraday peak",[1],−50.1%
same,"Percent sUA reduction from baseline, Trough",[1],−41.2%
same,"Absolute sUA reduction from baseline, Intraday peak","Week 3, Drug 1 200 mg alone",-3.3 mg/dL
same,"Absolute sUA reduction from baseline, Trough","Week 3, Drug 1 200 mg alone",-2.7 mg/dL
same,"Percent sUA reduction from baseline, Intraday peak","Week 3, Drug 1 200 mg alone",−49.0%
same,"Percent sUA reduction from baseline, Trough","Week 3, Drug 1 200 mg alone",−42.1%
